# Results reported in US6287792A, “Drug delivery of antisense oligonucleotides and peptides to tissues in vivo and to cells using avidin-biotin technology” (The Regents of the University of California, priority 1991, dated 2001).
# System: isolated bovine brain capillaries (uptake of avidin-biotin complex)
# Assay: uptake of the avidin-biotin complex by isolated bovine brain capillaries in vitro
# Assay type: cell-based
# Conditions: 50 mM, 23° C., thirty minutes
# Experimental: The in vitro studies were performed with isolated bovine brain capillaries used as an in vitro model of blood brain barrier (BBB) transport (16). […] The modest uptake of radioactivity in the presence of buffer alone represents uptake of [P^32 ] nucleotide or phosphate ion generated by capillary nuclease or phosphatase degradation of the antisense oligonucleotide. All incubations were performed at 23° C. for thirty minutes with brain capillary (about 100 μg protein per flask).
compound,measurement,value
CO[C@H]1O[C@H](CO)[C@@H](O)[C@H](O)[C@@H]1O [α-methylmannoside],inhibition of the uptake of the avidin-biotin complex by brain capillaries,no significant inhibition
